Measurements from patent publication US8329675B2, “Inhibitors of fatty acid amide hydrolase” (Infinity Pharmaceuticals, Inc., priority 2006, dated 2012).

Biological target: T1, human FAAH (Homo sapiens, UniProt O00519)
T1 construct: host or cells: COS-7 cells, transient transfection; 13,000 g membrane fraction solubilised in 1% Triton X-100
T1 sequence (O00519 1-579): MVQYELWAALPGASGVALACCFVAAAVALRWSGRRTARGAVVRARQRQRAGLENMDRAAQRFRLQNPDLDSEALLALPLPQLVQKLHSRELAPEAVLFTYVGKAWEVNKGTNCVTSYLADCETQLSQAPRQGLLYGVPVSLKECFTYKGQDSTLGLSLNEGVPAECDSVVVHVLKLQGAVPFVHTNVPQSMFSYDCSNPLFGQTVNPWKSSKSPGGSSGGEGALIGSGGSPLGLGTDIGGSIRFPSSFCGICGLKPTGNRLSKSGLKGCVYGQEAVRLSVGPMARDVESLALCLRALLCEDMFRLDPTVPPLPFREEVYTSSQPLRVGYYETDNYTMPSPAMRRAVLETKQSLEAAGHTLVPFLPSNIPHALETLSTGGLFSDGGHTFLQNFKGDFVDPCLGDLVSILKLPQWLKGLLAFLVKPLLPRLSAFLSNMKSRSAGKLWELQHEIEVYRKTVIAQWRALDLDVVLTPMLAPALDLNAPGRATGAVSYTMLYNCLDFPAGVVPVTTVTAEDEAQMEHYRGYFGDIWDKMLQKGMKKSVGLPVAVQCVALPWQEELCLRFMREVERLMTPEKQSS
Assay: Human FAAH biochemical inhibition assay (AMC arachidonoyl amide fluorescence)
Conditions: Table 1, human FAAH (no asterisk); read-out: Activity (Ki)
Description: The resulting solution is added into one dish of 30-40% confluent COS-7 cells in a drop-wise manner. The COS-7 cell dish is subsequently incubated for 48 hours. The cells are then harvested.
Harvest procedure: Media was aspirated from the dishes and the cells rinsed with 10 mL PBS. The PBS was removed and 3 mLs of PBS added to the dish. The dish was scraped to resuspend the cells, and the subsequent cell suspension collected into a 15 ml conical tube. The cells were pelleted by centrifugation at 1200 rpm for 5 minutes in a bench top centrifuge. PBS was removed and the cell pellet snap frozen in liquid nitrogen, store at −80 C.
The pellets were dounce homogenized and then sonicated to produce cell extract. The cell extract was subsequently centrifuged at 1000 g to remove cellular debris. The pellet was discarded and the supernatant centrifuged at 13,000 g for 20 minutes. The pellet contained membrane bound FAAH. The supernatant was discarded and the pellet resolubilized.
(2) Re-solubilization: The fraction of interest, (13,000 g, membrane fraction) was re-suspended in re-suspension buffer (20 mM Hepes pH 7.8, 10% v/v Glycerol, 1 mM EDTA, 1% Triton X-100) (2.3 mL re-suspension and the sample incubated on ice for 1 hour and then centrifuged to at 13,000 g remove any particulate matter. The supernatant containing solubilized human FAAH was aliquoted and snap frozen in liquid nitrogen and stored at −80° C. until use.
FAAH reaction buffer: 50 mM Hepes (pH 7.5), 1 mM EDTA, 0.2% Triton X-100.
Human FAAH assay; Experimental Protocol: A 0.1 mg/mL Human FAAH solution is made up in FAAH reaction buffer, and 24 ul pipetted into a 384 well plate. To this is added 1 uL of a 3 fold serially diluted inhibitor from a DMSO stock solution. The FAAH solution and inhibitor are incubated for 30 minutes at room temperature. The FAAH reaction is initiated by the addition of 25 uL of 40 uM AMC Arachidonoyl Amide in FAAH reaction buffer, yielding a final reaction human FAAH preparation concentration of 0.05 mg/ml and AMC-Arachidonoyl substrate concentration of 20 uM, reaction volume 50 uL. The reaction is allowed to proceed for 4 hours at room temperature. […] The microtiter plate in read in the envision plate reader.

Ki [nM]	SMILES
10 to 1000	OB(O)c1ccc(Br)cc1 [Compound I-69]
10 to 1000	OB(O)c1cc(Cl)cc(Cl)c1 [Compound I-22]
> 1000	OB(O)c1ccncc1 [Compound I-90]
10 to 1000	CCCCOc1ccc(B(O)O)c(C)c1 [Compound I-138]
> 1000	CC(C)(C)OC(=O)n1c(B(O)O)cc2cc(OCc3ccccc3)ccc21 [Compound I-114]
10 to 1000	COc1ccc(CNC(=O)Nc2ccc(B3OC(C)(C)C(C)(C)O3)cc2)cc1 [Compound I-122]
> 1000	OB(O)c1ccco1 [Compound I-93]
10 to 100	Cc1cc(OCc2ccccc2)ccc1B(O)O [Compound I-134]
> 1000	OB(O)c1cncnc1 [Compound I-89]
> 1000	OB(O)/C=C/c1ccccc1 [Compound I-106]
> 1000	CCCCOc1c(F)c(F)c(B(O)O)c(F)c1F [Compound I-53]
10 to 100	CCCCOc1ccc(B(O)O)cc1 [Compound I-61]
10 to 1000	OB(O)c1ccccc1Cl [Compound I-39]
10 to 100	COc1c(Br)cc(F)cc1B(O)O [Compound I-10]
10 to 1000	OB(O)c1ccccc1F [Compound I-105]
10 to 1000	OB(O)c1cc(F)cc(F)c1 [Compound I-24]
10 to 1000	COc1ccc(CN(Cc2ccccc2)S(=O)(=O)c2ccc(B(O)O)cc2)cc1 [Compound I-118]

Ki [nM]	SMILES
> 1000	CC1(C)OB(c2cccc3cc[nH]c23)OC1(C)C [Compound I-3]
10 to 1000	O=S(=O)(NCC1CCCCC1)c1ccc(B(O)O)cc1 [Compound I-119]
< 10	OB(O)c1ccc(OCc2ccccc2)cc1F [Compound I-146]
10 to 100	OB(O)c1ccc(C(F)(F)F)cc1 [Compound I-86]
> 1000	OB1OCCc2ccccc21 [Compound I-99]
10 to 100	OB(O)c1ccc(OC(F)(F)F)cc1 [Compound I-204]
> 1000	OB(O)C1=CCCCCC1 [Compound I-11]
10 to 1000	N#Cc1ccc(B(O)O)cc1 [Compound I-46]
> 1000	OB(O)c1c(F)ccc(OCc2ccccc2)c1F [Compound I-143]
< 10	CCCCOc1ccc(B(O)O)cc1Cl [Compound I-38]
10 to 1000	OB(O)c1cccc2ccccc12 [Compound I-111]
10 to 100	OB(O)c1ccc(-c2ccc(B(O)O)cc2)cc1 [Compound I-198]
> 1000	OB(O)c1c(F)c(F)c(Br)c(F)c1F [Compound I-44]
> 1000	COc1ccc(Br)cc1B(O)O [Compound I-12]
> 1000	CC(C)Oc1c(Br)cc(F)cc1B(O)O [Compound I-7]
> 1000	OB(O)c1ccc2c(c1)CCO2 [Compound I-103]
> 1000	OB(O)c1ccsc1 [Compound I-92]

Same assay, conditions: Table 2, human FAAH (no asterisk); read-out: Activity (Ki)

SMILES	Ki [nM]
OB(O)c1ccc2sccc2c1 [II-49]	10 to 1000
OB(O)c1ccc(COc2cccc3ccccc23)cc1 [II-119]	< 10
OB(c1ccccc1)c1ccc(Oc2ccccc2)cc1 [II-66]	10 to 100
OB(O)c1ccc(OCCc2cccc(OCCCc3ccccc3)c2)cc1F [II-17]	< 10
C[N+]12CC(=O)O[B-]1(c1ccc(-c3cccc(F)c3)cc1F)OC(=O)C2 (stereo not drawn) [II-86]	< 10
CN(C)CCCC(=O)Nc1cccc(CCOc2ccc(B(O)O)c(F)c2)c1 [II-22]	10 to 1000
CN(Cc1ccc(B(O)O)cc1)c1ccccc1 [II-141]	< 10
CCCCOc1cccc(CCOc2ccc(B(O)O)c(F)c2)c1 [II-18]	< 10
OB(O)c1cccc(OCCc2ccccc2)c1 [II-113]	10 to 100
C[C@@H](NC(=O)c1ccc(B(O)O)cc1)c1ccccc1 [II-171]	10 to 100
O=C(CCCc1ccc(B(O)O)cc1)c1ccccc1 [II-76]	< 10
CN(C)[C@H](COc1ccc(B(O)O)c(F)c1)Cc1ccccc1 [II-98]	> 1000
OB(O)c1ccc(COCC2CCCCO2)cc1 (stereo not drawn) [II-102]	10 to 100
OB(O)c1ccc(-c2ccco2)cc1 [II-59]	10 to 100
OB(O)c1ccc(OCCOc2ccccc2)cc1 [II-129]	< 10
OB(O)c1ccc(CCCc2ccccc2)cc1F [II-46]	< 10
CN(Cc1ccccc1)[C@@H](COc1ccc(B(O)O)c(F)c1)Cc1ccccc1 [II-106]	10 to 1000
OB(O)c1ccc(Oc2cccc(F)c2)c(F)c1 [II-85]	< 10
OB(O)c1ccc(CN2CCc3ccccc32)cc1F [II-91]	< 10
CN(Cc1ccccc1)[C@H](COc1ccc(B(O)O)c(F)c1)Cc1ccccc1 [II-97]	10 to 1000
CN(Cc1ccc(B(O)O)c2ccccc12)c1ccccc1 [II-112]	> 1000
O=C(CCc1ccccc1)c1ccc(B(O)O)c(F)c1 [II-44]	< 10
Cc1ccc2scc(B(O)O)c2c1 [II-65]	10 to 1000
CC1(C)OB(c2ccc(OCCc3ccccc3)cc2)OC1(C)C [II-168]	10 to 100
O=S(=O)(Cc1ccccc1)Cc1ccc(B(O)O)c(F)c1 [II-80]	> 1000
OB(O)c1ccc(OCc2cccnc2)cc1F [II-160]	10 to 100

Next, values leading:

Ki [nM]	SMILES
10 to 100	Nc1ccc(Oc2ccc(B(O)O)cc2)cc1 [II-286]
< 10	Cc1cc(Oc2ccc(B(O)O)cc2)ccc1Cl [II-254]
< 10	CC1(C)OB(c2ccc(OCc3cncs3)cc2F)OC1(C)C [II-174]
< 10	Cc1cccc(Oc2ccc(B(O)O)cc2)c1 [II-281]
< 10	Cc1cc(OCc2ccc(B(O)O)cc2)ccc1Cl [II-250]
< 10	COC(=O)c1cccc(Oc2ccc(B(O)O)cc2)c1 [II-285]
< 10	CC1(C)OB(c2ccc(OCc3ccccn3)cc2F)OC1(C)C [II-176]
< 10	COc1ccc(Oc2ccc(B(O)O)cc2)cc1Cl [II-252]
< 10	Cc1ccc(Oc2ccc(B(O)O)c(F)c2)cc1Cl [II-211]
10 to 100	CN(C)c1cccc(Oc2ccc(B(O)O)c(F)c2)c1 [II-201]
< 10	COC(=O)c1ccc(Oc2ccc(B(O)O)cc2)cc1 [II-284]
< 10	OB(O)c1ccc(OCc2ccc(Cl)cc2)cc1 [II-269]
< 10	O=C(NCc1ccccc1)c1cccc(Oc2ccc(B(O)O)cc2)c1 [II-221]
> 1000	CN(C)c1cc(Oc2ccc(B(O)O)cc2)cc(Oc2cccc(F)c2)c1 [II-180]
< 10	COc1cc(Oc2cccc(F)c2)ccc1B(O)O [II-204]
< 10	OB(O)c1ccc(Oc2ccc(F)cc2)cc1 [II-290]
10 to 100	CCCc1ccc(-c2ccc(B(O)O)cc2)cc1 [II-297]
< 10	OB(O)c1ccc(Oc2cccc(F)c2)cc1Cl [II-207]
< 10	Cc1cc(Oc2ccc(B(O)O)cc2)ccc1F [II-253]
< 10	OB(O)c1ccc(Oc2ccccc2)cc1 [II-317]
< 10	OB(O)c1ccc(Oc2ccc(Cl)c(Cl)c2)cc1 [II-259]
10 to 100	COc1cc(Oc2ccc(B(O)O)cc2)cc(OC)c1OC [II-240]
10 to 1000	CN(C(=O)c1ccccc1)c1ccc(B(O)O)cc1 [II-235]
< 10	OB(O)c1ccc(Oc2cccc(OC(F)(F)F)c2)cc1F [II-212]
< 10	Cc1cc(COc2ccc(B(O)O)cc2F)ccc1F [II-265]
> 1000	OB(O)c1ccc(Oc2cccc(N3CCCCC3)c2)cc1F [II-196]
> 1000	NC(=O)c1ccc(-c2cccc(B(O)O)c2)cc1 [II-304]
< 10	OB(O)c1ccc(Oc2cccc(F)c2)c(F)c1F [II-194]
< 10	Cc1ccc(Oc2ccc(B(O)O)cc2)cc1 [II-280]
10 to 100	OB(O)c1ccc(OCc2ccncc2)cc1F [II-177]
